Source: ChEMBL document CHEMBL3751706, “Synthesis, biological studies and molecular dynamics of new anticancer RGD-based peptide conjugates for targeted drug delivery” (Bioorg Med Chem, 2016)
Activity calls are given as the source filed them. The calls are words filed in the database; no cut-off is given here.

Assays:
[1] = Half life in mouse liver homogenates by LC-MS analysis; assay type: ADME, tissue-based; details: liver homogenate
NCI-H1299 [2] = assay: Cytotoxicity against human H1299 cells overexpressing alphavbeta3 integrin at up to 50 uM after 24 hrs by XTT assay; assay type: functional, cell-based
[3] = Chemical stability of the compound at pH 5.2 assessed as half life by LC-MS analysis; assay type: physicochemical; details: buffer
HEK293 [4] = assay: Cytotoxicity against HEK293 […] cells non-expressing alphavbeta3 integrin up to 50 uM after 24 hrs by XTT assay; assay type: cell-based; details: human, hek293, 24 h
B16-F10 [5] = assay: Cytotoxicity against mouse B16F10 cells overexpressing alphavbeta3 integrin up to 50 uM after 24 hrs by XTT assay; assay type: functional, cell-based
[6] = Chemical stability of the compound at pH 7.4 assessed as half life by LC-MS analysis; assay type: physicochemical; details: buffer
Liver [7] = assay: Drug metabolism in mouse liver homogenates assessed as time duration for drug release at 37 degC by LC-MS analysis; assay type: ADME, tissue-based; details: tissue homogenate
Liver [8] = assay: Drug metabolism in mouse liver homogenates assessed as half life for drug release at 37 degC by LC-MS analysis; assay type: ADME, tissue-based; details: tissue homogenate
B16-F10 [9] = assay: Cytotoxicity against mouse B16F10 cells overexpressing alphavbeta3 integrin at 50 to 100 uM after 24 hrs by XTT assay; assay type: functional, cell-based
NCI-H1299 [10] = assay: Cytotoxicity against human H1299 cells overexpressing alphavbeta3 integrin at >50 uM after 24 hrs by XTT assay; assay type: functional, cell-based
HEK293 [11] = assay: Cytotoxicity against HEK293 […] cells non-expressing alphavbeta3 integrin after 24 hrs by XTT assay; assay type: cell-based; details: human, hek293, 24 h

In the case of `CC[C@@]1(O)C(=O)OCc2c1cc1n(c2=O)Cc2cc3ccccc3nc2-1` [CAMPTOTHECIN], the half-life [1] is reported as 1.75 h, the Activity (NCI-H1299 [2]) is reported as “Active” and the half-life [3] is reported as under 96 h. The Activity (HEK293 [4]) was “Toxic”, the Activity (B16-F10 [5]) was “Active” and the half-life [6] was under 96 h.

Compound `O=C(O)CCCc1ccc(N(CCCl)CCCl)cc1` [CHLORAMBUCIL] has a half-life [1] of 1 h, a half-life [3] of 3.33 h and a half-life [6] of 3.33 h.

`CC[C@@]1(OC(=O)NCCCC[C@@H]2NC(=O)[C@@H](Cc3ccccc3)NC(=O)[C@H](CC(=O)O)NC(=O)CNC(=O)[C@H](CCCNC(=N)N)NC2=O)C(=O)OCc2c1cc1n(c2=O)Cc2cc3ccccc3nc2-1` showed a half-life [3] of over 96 h, a Time (Liver [7]) of 10 min and a t1/2 (Liver [8]) of 5 min. The half-life [6] was over 96 h.

In the case of `N=C(N)NCCC[C@@H]1NC(=O)[C@H](CCCCNC(=O)CCCc2ccc(N(CCCl)CCCl)cc2)NC(=O)[C@@H](Cc2ccccc2)NC(=O)[C@H](CC(=O)O)NC(=O)CNC1=O`, the half-life [3] is reported as under 12 h, the Activity (B16-F10 [9]) is reported as “Active” and the Drug metabolism (Liver [7]) is reported as “metabolite_notdetected”. The half-life [6] was under 12 h and the Activity (NCI-H1299 [10]) was “Active”.

In the case of `N=C(N)NCCC[C@@H]1NC(=O)[C@H](COC(=O)CCCc2ccc(N(CCCl)CCCl)cc2)NC(=O)[C@@H](Cc2ccccc2)NC(=O)[C@H](CC(=O)O)NC(=O)CNC1=O`, the half-life [3] is reported as under 12 h, the Activity (B16-F10 [9]) is reported as “Active” and the Time (Liver [7]) is reported as 45 min. For the same compound, the t1/2 (Liver [8]) was 5 min, the Activity (HEK293 [11]) was “Toxic” and the half-life [6] was under 12 h. For the same compound, the Activity (NCI-H1299 [10]) was “Active”.
